“Also recorded” adds a separate entry of the source.
Assays:
[1] = system: db/db mice; assay: Evaluation of anti-diabetic effects in db/db mice; assay type: in vivo; settings: oral, 4 weeks; for anti-diabetic effects: BER 50 mg/kg/d, GLY 80 mg/kg/d alone, 50 or 80 mg/kg/d with BER
Protocol: Eight-week-old male db/db mice (30–35 g) were used, and the details were described in Supplemental Data. The mice were randomly divided into eight groups. Mice were orally administered with metformin (100 mg/kg/d, n = 6), berberine (50 mg/kg/d, n = 6), glycyrrhizic acid (80 mg/kg/d, n = 6), berberine (50 mg/kg/d) combined with low-dose of glycyrrhizic acid (50 mg/kg/d, n = 6), berberine (50 mg/kg/d) combined with high-dose of glycyrrhizic acid (80 mg/kg/d, n = 6), berberine (50 mg/kg/d) combined with Gan-Cao (2.2 g/kg/d, n = 7), and GQD (18.2 g/kg/d, n = 7) for 4 weeks. For the control group, the […] were administered with an equal volume of water. On day 28, after fasted for 12 h, retro-orbital blood samples were collected, stand for 1 h, and then centrifuged (6,000 rpm, 4°C) for 20 min to obtain serum. Biochemical indicators such as blood glucose and insulin were determined on a Mindray BS-800 analyzer (Mindray Bio-Medical Electronics Co.).
Herbal materials and extracts.
The four component herbs, Puerariae Lobatae Radix (Ge-Gen, GG), Scutellariae Radix (Huang-Qin, HQ), Coptidis Rhizoma (Huang-Lian, HL), and Glycyrrhizae Radix et Rhizoma Praeparata cum Melle (Gan-Cao, GC) were purchased from Tianheng Pharmacy. GQD was prepared by decocting the four component herbs […]
of water for three times (1.5 h, 1.5 h, 0.5 h) to obtain the extracts, followed by a pre-extraction of Ge-Gen using 200 mL of water for 0.5 h. The decoctions were combined, filtered, and concentrated in vacuum at 50 °C. GQD-GC was prepared using the same procedure, except that Gan-Cao was removed from the formula. Final concentration of the GQD-GC extract was equivalent to 1.0 g of the crude drugs per mL. For single herb extracts, the herbs were decocted in 8-fold volume of water for three times (1.5 h, 1.5 h, 0.5 h) and then concentrated. […]
For anti-diabetic study, Eight-week-old male db/db mice (30–35 g) were purchased from Card Vince Laboratory animal Co., Ltd. The mice were bred in a cage (318 × 202 × 135 mm) in a breeding room at 25 °C, 60 ± 5% humidity, and a 12-h dark-light […]
On day 28, db/db mice were fasted for 12 h, and blood was collected and centrifuged to obtain serum for insulin and biochemical tests. After that, 150 µL of plasma was prepared by adding 150 µL of internal standard solution, 150 µL of methanol, and 300 µL of acetonitrile. The processing method was consistent with sample preparation for […]
3.1. Optimization of chromatographic separation
Different solvents (67% methanol, and 100% methanol) were compared to effectively extract both hydrophilic and hydrophobic compounds of GQD. […]
better extraction recovery for most compounds. […]

[2] = target: T1, P-glycoprotein (P-gp) (Homo sapiens, UniProt P08183); assay: P-gp inhibitor and inducer experiments on Caco-2 cell monolayer; assay type: in vitro ADME; settings: for interaction with P-gp: Caco-2 cell monolayer
T1 construct: host or cells: Caco-2 (human colon adenocarcinoma) monolayers, passages 24-35
Protocol: The final concentration of GQD, GQD−GC, and Huang-Lian water extracts were 32, 28, and 6 μg/mL, respectively. […]
containing glucose (25 mM) and HEPES (10 mM). The final concentration of berberine was 5 µM. The final concentration of DMSO was below 1% (v/v). […]
inducer of Caco-2 cells, respectively. For the inhibitor experiments, the Caco-2 cells were cultivated in DMEM until the 21st day. After removal of the medium, the cells were incubated for 30 minutes with HBSS containing 5 µM of verapamil. For the inducer experiments, the cells were cultivated in DMEM until the 18th day, and then […]
was removed on the 21st day, and the cells were then incubated for 30 min with HBSS.
Berberine and glycyrrhizic acid were added to the system following HBSS incubation.
For all bidirectional transport assays, samples (300 µL) were collected after 30, 60, 90, […]
with an equal volume of HBSS. The samples were freeze-dried and then dissolved in 300 µL of methanol. The solutions were filtered through 0.22-µm membranes before […]
3. Inhibitor and inducer experiments […]
respectively. For the inhibition experiments, Caco-2 cells were cultivated in DMEM until the 21st day. After removal of the medium, the cells were incubated for 30 minutes with HBSS containing verapamil (5 µM). For induction experiments, the cells were cultivated in DMEM until the 18th day, and then cultivated in DMEM […]
The medium was removed on the 21st day, and the cells were then incubated for 30 min with HBSS. Berberine and glycyrrhizic acid were added to the system following HBSS incubation.

T1 sequence (P08183 whole entry): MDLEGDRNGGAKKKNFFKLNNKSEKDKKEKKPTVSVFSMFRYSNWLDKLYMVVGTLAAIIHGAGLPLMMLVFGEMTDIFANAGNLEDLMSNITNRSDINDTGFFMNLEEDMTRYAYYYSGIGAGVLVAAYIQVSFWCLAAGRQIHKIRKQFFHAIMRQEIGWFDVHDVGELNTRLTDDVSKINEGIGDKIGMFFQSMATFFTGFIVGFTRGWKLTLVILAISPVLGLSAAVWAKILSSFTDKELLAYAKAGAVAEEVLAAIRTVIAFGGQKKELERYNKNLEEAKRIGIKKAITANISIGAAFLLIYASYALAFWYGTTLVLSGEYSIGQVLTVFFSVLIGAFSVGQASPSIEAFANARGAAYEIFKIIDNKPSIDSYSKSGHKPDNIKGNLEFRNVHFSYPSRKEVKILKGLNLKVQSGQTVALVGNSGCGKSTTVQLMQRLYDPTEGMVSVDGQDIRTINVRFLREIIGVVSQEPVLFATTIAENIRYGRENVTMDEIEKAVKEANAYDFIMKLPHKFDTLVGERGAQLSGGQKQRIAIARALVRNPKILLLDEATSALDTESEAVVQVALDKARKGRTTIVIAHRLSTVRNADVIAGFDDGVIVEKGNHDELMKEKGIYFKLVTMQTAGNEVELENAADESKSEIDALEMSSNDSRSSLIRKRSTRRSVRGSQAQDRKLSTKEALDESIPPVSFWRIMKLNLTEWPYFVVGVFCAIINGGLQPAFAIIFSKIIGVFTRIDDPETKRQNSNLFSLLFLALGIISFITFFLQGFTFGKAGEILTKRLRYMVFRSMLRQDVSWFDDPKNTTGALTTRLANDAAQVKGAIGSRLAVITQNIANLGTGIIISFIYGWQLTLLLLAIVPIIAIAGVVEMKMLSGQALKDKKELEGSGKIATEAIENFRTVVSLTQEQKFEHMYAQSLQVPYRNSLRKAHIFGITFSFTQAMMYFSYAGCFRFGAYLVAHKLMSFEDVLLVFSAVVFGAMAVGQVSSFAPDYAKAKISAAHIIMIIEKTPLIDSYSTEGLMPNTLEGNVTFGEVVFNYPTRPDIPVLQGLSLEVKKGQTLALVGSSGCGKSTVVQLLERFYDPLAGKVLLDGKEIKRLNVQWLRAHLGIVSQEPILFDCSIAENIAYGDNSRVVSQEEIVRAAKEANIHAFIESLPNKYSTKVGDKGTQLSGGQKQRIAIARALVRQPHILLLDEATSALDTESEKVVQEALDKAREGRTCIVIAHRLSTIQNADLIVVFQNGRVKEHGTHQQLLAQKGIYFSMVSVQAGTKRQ

interaction with P-gp [2] | SMILES | anti-diabetic effects ([1]; listed as GLY) | interaction with P-gp ([2]; listed as GLY) | counteraction of the impact of rifampicin on BER transport ([2]; GLY 5 μM, especially after 150 min treatment) | anti-diabetic effects ([1]; listed as BER) | ALT and AST levels (liver damage) ([1]; serum)
 | CC1(C)[C@@H](O[C@H]2O[C@H](C(=O)O)[C@@H](O)[C@H](O)[C@H]2O[C@@H]2O[C@H](C(=O)O)[C@@H](O)[C@H](O)[C@H]2O)CC[C@]2(C)[C@H]3C(=O)C=C4[C@@H]5C[C@@](C)(C(=O)O)CC[C@]5(C)CC[C@@]4(C)[C@]3(C)CC[C@@H]12 [Compound 36, glycyrrhizic acid] | did not show observable anti-diabetic effects | inhibiting P-glycoprotein; also recorded: P-gp inhibitor | could counteract the impact of 5 or 20, but not 50 μM rifampicin |  | 
P-gp substrate | COc1ccc2cc3[n+](cc2c1OC)CCc1cc2c(cc1-3)OCO2 [Compound 24, berberine] |  |  |  | confirmed its anti-diabetic activities; also recorded: significant anti-diabetic and hypolipidemic activities | decreasing
